From patent publication US20250002954A1, “Novel Compound, Use Thereof, and Method for Producing Same, and Compound-Containing Composition, Method for Producing 4-Trehalosamine, and Microorganism” (Microbial Chemistry Research Foundation, priority 2021, published 2025)

Columns and labels:
[1] = molecular target: T1, bovine alkaline phosphatase (CIP) (Bos taurus, UniProt P19111); test: Evaluation of CIP-protective activity under freeze-dried condition; assay type: biochemical; conditions: for CIP activity after freeze-drying: freeze-dried with 3% additive
T1 construct: purchased New England Biolabs
Procedure: Test samples 1 to 12 containing bovine alkaline phosphatase (CIP) were prepared as follows and protein-protective activity of various kinds of added sugar under freeze-dried condition was evaluated.
After bovine alkaline phosphatase (10 units/μL, manufactured by New England Biolabs) was diluted to 1/40 with TBS (manufactured by Takara Bio Inc.), it was subjected to dialysis for 2 hours at 4° C. within TBS of an amount 1,000 times the diluted enzyme solution to remove glycerol. 40 μL of TBS containing 2% trehalose (TRH) was added to and mixed with 40 μL of the enzyme solution after dialysis and the mixture was frozen at −80° C. for 10 minutes. It was then freeze-dried for 20 hours with a freeze dryer (FLEXI-DRY, manufactured by FTS systems INC., Warminster) connected to a vacuum pump (P65D, manufactured by PHIL Sato Vac INC.), preparing freeze-dried product of enzyme with 1% TRH.
Freeze-dried product of enzyme with 3% TRH was prepared in a similar manner to the preparation method of test sample 4 except that the final concentration of trehalose was changed to 3% in the preparation method of test sample 4. […]
Freeze-dried product of enzyme with 3% 4TA was prepared in a similar manner to the preparation method of test sample 5 except that trehalose was changed to 4-trehalosamine (4TA) in the preparation method of test sample 5. […]
Freeze-dried product of enzyme with 3% MLT was prepared in a similar manner to the preparation method of test sample 5 except that trehalose was changed to maltose (MLT) in the preparation method of test sample 5. […]
Freeze-dried product of enzyme with 3% SCR was prepared in a similar manner to the preparation method of test sample 5 except that trehalose was changed to sucrose (SCR) in the preparation method of test sample 5.
Freeze-dried product of enzyme with 3% GOL was prepared in a similar manner to the preparation method of test sample 5 except that trehalose was changed to glycerol (GOL) in the preparation method of test sample 5.
80 μL of water was added to each of the freeze-dried products of test samples 3 to 12 and the mixture was diluted to 1/100 with TBS. Test samples 1 and 2 were diluted to 1/100 with TBS. 10 μL of each of the diluted test samples 1 to 12 and 20 μL of 0.1 M p-nitrophenylphosphate (pNPP)-TBS solution were added to 70 μL of TBS, and enzyme reaction was left to take place at 37° C. for 1 hour. After the reaction, absorbance at 420 nm was measured with a microplate reader (Cytation5, manufactured by Bio Tek Instruments) and CIP activity was measured by the amount of p-nitrophenol as enzyme reaction product (n=3, mean±S.D.).

Escherichia coli K-12 = test: Evaluation of Escherichia coli protective activity in freeze-dried condition; assay type: cell-based; conditions: for Numbers of live bacterial cells (relative numbers): Escherichia coli freeze-dried with 6% aqueous solution (final concentration 3%), test sample 3 (FD) = 1
Procedure: Using test samples 1 to 8 containing Escherichia coli prepared in the following manner, microorganism-protective activity with various kinds of sugar in a freeze-dried condition was evaluated.
Frozen stock of Escherichia coli (Escherichia coli K-12, owned by the Microbial Chemistry Research Foundation) was inoculated in 10 mL of Luria-Bertani (LB) culture medium (manufactured by Difco) and cultured at 37° C. for 24 hours while shaking it at 220 rpm. After culture, it was centrifuged at 3,000×g for 5 minutes, washed once with 10 mL of water, and then suspended in 10 mL of water, thus obtaining Escherichia coli suspension. 50 μL of water was added to and mixed with 50 μL of this Escherichia coli suspension and the mixture was left to stand at 4° C. for 12 hours, preparing control (NF).
After Escherichia coli suspension was prepared in a similar manner to test sample 1, 50 μL of 6% aqueous solution of trehalose was added to and mixed with 50 μL of the Escherichia coli suspension, and the mixture was frozen at −80° C. for 1 hour. It was then freeze-dried for 12 hours with a freeze dryer (FLEXI-DRY, manufactured by FTS systems INC., Warminster) connected to a vacuum pump (P65D, manufactured by PHIL Sato Vac INC.), preparing freeze-dried product (TRH) of Escherichia coli with TRH.
Freeze-dried product (4TA) of Escherichia coli with 4TA was obtained in a similar manner to the preparation method of test sample 4 except that trehalose was changed to 4-trehalosamine (4TA) in the preparation method of test sample 4.
Freeze-dried product (MLT) of Escherichia coli with MLT was obtained in a similar manner to the preparation method of test sample 4 except that trehalose was changed to maltose (MLT) in the preparation method of test sample 4.
Freeze-dried product (SCR) of Escherichia coli with SCR was obtained in a similar manner to the preparation method of test sample 4 except that trehalose was changed to sucrose (SCR) in the preparation method of test sample 4.
Freeze-dried product (GOL) of Escherichia coli with GOL was obtained in a similar manner to the preparation method of test sample 4 except that trehalose was changed to glycerol (GOL) in the preparation method of test sample 4.
For test samples 1 and 2, serial suspensions were made by diluting them to 1/10 with water. 100 μL of water was added to each of the freeze-dried products of test samples 3 to 8 and diluted to 1/10 with water to make their serial suspensions. 80 μL of water was added to 10 μL of each diluted solution.
In a 6-well microplate, 2% Agar-LB was prepared at 3 mL/well, and 90 μL of each diluted solution was inoculated on the 2% Agar-LB and cultured at 37° C. for 24 hours.
Wells in which the number of colonies was measurable were selected and the numbers (relative numbers) of live bacterial cells per well on test samples 1, 2, and 4 to 8 when the number of live bacterial cells per well on test sample 3 (FD) was “1” were calculated in consideration of the dilution concentrations of those test samples.

T1 sequence (P19111 20-506): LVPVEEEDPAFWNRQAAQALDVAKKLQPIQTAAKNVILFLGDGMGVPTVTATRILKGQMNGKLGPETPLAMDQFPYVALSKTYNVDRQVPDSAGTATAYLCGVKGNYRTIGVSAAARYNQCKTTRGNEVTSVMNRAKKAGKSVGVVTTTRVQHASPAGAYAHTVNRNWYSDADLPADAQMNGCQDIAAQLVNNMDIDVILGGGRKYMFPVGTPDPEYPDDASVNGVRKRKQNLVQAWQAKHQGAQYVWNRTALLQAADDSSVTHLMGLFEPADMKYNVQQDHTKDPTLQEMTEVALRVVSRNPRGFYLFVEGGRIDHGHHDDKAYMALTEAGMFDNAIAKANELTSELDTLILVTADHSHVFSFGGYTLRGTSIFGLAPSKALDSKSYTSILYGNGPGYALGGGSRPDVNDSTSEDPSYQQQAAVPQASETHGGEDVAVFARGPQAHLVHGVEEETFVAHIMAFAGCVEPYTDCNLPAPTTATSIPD

## OC[C@H]1O[C@H](O[C@H]2[C@H](O)[C@@H](O)C(O)O[C@@H]2CO)[C@H](O)[C@@H](O)[C@@H]1O (mixture of isomers) [maltose]
[1]
  CIP activity after freeze-drying: good activity was maintained
Escherichia coli K-12
  Numbers of live bacterial cells (relative numbers): 10

## OC[C@H]1O[C@H](O[C@H]2O[C@H](CO)[C@@H](O)[C@H](O)[C@H]2O)[C@H](O)[C@@H](O)[C@@H]1O [trehalose, reference compound]
[1]
  CIP activity after freeze-drying: good activity was maintained
Escherichia coli K-12
  Numbers of live bacterial cells (relative numbers): 10

## OCC(O)CO [GOL, glycerol]
[1]
  CIP activity after freeze-drying: enzyme activity significantly dropped
Escherichia coli K-12
  Numbers of live bacterial cells (relative numbers): 0

## N[C@H]1[C@H](O)[C@@H](O)[C@@H](O[C@H]2O[C@H](CO)[C@@H](O)[C@H](O)[C@H]2O)O[C@@H]1CO [4-trehalosamine]
[1]; freeze-dried
  CIP protection effect compared to other sugars: high compared to the other sugars
[1]
  CIP activity after freeze-drying: good activity was maintained
Escherichia coli K-12
  Numbers of live bacterial cells (relative numbers): 100
Escherichia coli K-12; Escherichia coli, freeze-dried
  protective effect on microorganisms, comparison: stronger than when the other sugars were added

## OC[C@H]1O[C@@](CO)(O[C@H]2O[C@H](CO)[C@@H](O)[C@H](O)[C@H]2O)[C@@H](O)[C@@H]1O [sucrose]
[1]
  CIP activity after freeze-drying: good activity was maintained
Escherichia coli K-12
  Numbers of live bacterial cells (relative numbers): 100
